Results on 2 compounds are retold here after US20260327255A1, “LIGAND-DIRECTED COVALENT MODIFICATION OF AMINO ACID SIDE CHAINS USING CYCLIC IMINE MANNICH ELECTROPHILES” (Purdue Research Foundation, priority 2022, published 2026).

Data set [1] can be described thus: Stability of cyclic imine inhibitor P1b. The format is physicochemical. The method, then: The sample was split, and one portion was further reduced with sodium cyanoborohydride. LC/MS: UV traces, low resolution mass spectrum. […] Stability was similarly assayed with 24-hour incubation in either 100 mM HCl or 100 mM NaOH.
Another data set deals with T1, mutant CBX8 (Y39F) (Homo sapiens, UniProt Q9HC52, Y39F).
T1 construct: Time dependent fluorescence polarization displacement assays of indicated chromodomains with P2
T1 sequence (Q9HC52 11-69 Y39F limits assumed): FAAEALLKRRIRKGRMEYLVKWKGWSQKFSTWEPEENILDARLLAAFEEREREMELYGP
Kind of data set: Time-dependent fluorescence polarization displacement assay, CBX8 Y39F. The format is binding. On the procedure:
(A) The fraction of labeled protein as determined by UV integration on reverse phase HPLC. CBX8 ChD and P2 were incubated at 10 μM each for 16 hours at 37° C. UV absorption measured at 215 nm. (B) Mass spectra of CBX8 ChD treated overnight with inhibitor P2 (top, red) and control CBX8 ChD (bottom, green). Observed masses are shown (expected average mass for CBX8 ChD=8792 Da). The observed mass difference (895 Da) corresponds to the expected mass change of 901 Da. (C) Time dependent fluorescence polarization displacement assays of indicated chromodomains with P2. Assays were conducted using SW2_123 as an FP probe (FIG. S15) at 100 nM. All proteins were used at 2 μM in PBS (pH 7), 0.02% Tween 20. Error bars represent s.d.
To validate labeling of the targeted tyrosine residue (Y39), this amino acid was mutated to phenylalanine, which is structurally similar but lacks reactivity to the cyclic imine. […] Similarly, for CBX2 ChD, no change in apparent affinity was observed over time in the FP assay (FIG. 13C), and no labeled protein was detected by MS.

Data set [2] relates to HOXA9 gene expression in THP1 cells. The experiment in a line: qRT-PCR analysis of HOXA9 gene expression in THP1 cells. Format: cell-based. The method, then:
FIG. 14 Cellular activity of covalent, cyclic imine inhibitors to CBX8. qRT-PCR analysis of HOXA9 gene expression in THP1 cells after 48 h of compound treatment at the indicated dose. N=3. Error bars represent s.d. Statistical significance determined by Student's T test. *=p<0.05, **=p<0.01, ***=p<0.001, ****=p<0.0001.
FIG. 15 Cellular activity of covalent, cyclic imine inhibitors to CBX8. (A) qRT-PCR analysis of HOXA9 gene expression in THP1 cells after 48 h of compound treatment at the indicated dose. N=3. Error bars represent s.d. Statistical significance calculated using student's t-test. **=p<0.01, ****=p<0.0001. (B) qRT-PCR analysis of HOXA9 gene expression in THP1 cells treated with increasing doses of compound for 48 h. N=3. Error bars represent s.d.
Imine inhibitors were assessed for improved cellular activity using a disease-relevant cell model. […] Using this same model, we compared the covalent inhibitors with non-covalent inhibitor SW2_110A in THP1 cell lines. […] The two optimal inhibitors P1bP and P2 were subsequently tested for dose-dependency in this cellular assay. Dose curves indicate that these covalent inhibitors have 30 to 100-fold improvement of cellular activity compared to the non-covalent inhibitor (FIG. 15B).
For orientation: Quantitative PCR measures a nucleic acid by following its amplification.

The target of data set [3] is T2, wild-type CBX8 chromodomain (Homo sapiens, UniProt Q9HC52).
T2 construct: recombinant CBX8 chromodomain (ChD)
T2 sequence (Q9HC52 11-69 limits assumed): T1 sequence (Q9HC52 11-69 Y39F limits assumed) with F29Y
The experiment in a line: Time-dependent fluorescence polarization displacement assay, CBX8. The format is binding. Conditions: for time-dependent change of potency (IC50): further incubation; for IC50 without additional incubation time (in words): no additional incubation. The method, then:
(A) The fraction of labeled protein as determined by UV integration on reverse phase HPLC. CBX8 ChD and P2 were incubated at 10 μM each for 16 hours at 37° C. UV absorption measured at 215 nm. (B) Mass spectra of CBX8 ChD treated overnight with inhibitor P2 (top, red) and control CBX8 ChD (bottom, green). […] (C) Time dependent fluorescence polarization displacement assays of indicated chromodomains with P2. Assays were conducted using SW2_123 as an FP probe (FIG. S15) at 100 nM. All proteins were used at 2 μM in PBS (pH 7), 0.02% Tween 20. Error bars represent s.d.
A fluorescence polarization (FP) displacement assay was used to evaluate the covalent binding of cyclic imine warhead containing inhibitors.
To validate labeling of the targeted tyrosine residue (Y39), this amino acid was mutated to phenylalanine, which is structurally similar but lacks reactivity to the cyclic imine.

The test system of data set [4] is CBX8 binding to chromatin; CBX8-mediated gene expression. Conditions: MLL-AF9 transformed leukemia; cited from earlier work.
For the next data set, the target named is T3, CBX8 ChD (Homo sapiens, UniProt Q9HC52).
T3 construct: recombinant CBX8 chromodomain (ChD)
T3 sequence (Q9HC52 11-69 limits assumed): T1 sequence (Q9HC52 11-69 Y39F limits assumed) with F29Y
Conditions: cited from earlier work.

The target of the next data set is T4, endogenous CBX8 (Homo sapiens, UniProt Q9HC52).
T4 sequence (Q9HC52 1-389): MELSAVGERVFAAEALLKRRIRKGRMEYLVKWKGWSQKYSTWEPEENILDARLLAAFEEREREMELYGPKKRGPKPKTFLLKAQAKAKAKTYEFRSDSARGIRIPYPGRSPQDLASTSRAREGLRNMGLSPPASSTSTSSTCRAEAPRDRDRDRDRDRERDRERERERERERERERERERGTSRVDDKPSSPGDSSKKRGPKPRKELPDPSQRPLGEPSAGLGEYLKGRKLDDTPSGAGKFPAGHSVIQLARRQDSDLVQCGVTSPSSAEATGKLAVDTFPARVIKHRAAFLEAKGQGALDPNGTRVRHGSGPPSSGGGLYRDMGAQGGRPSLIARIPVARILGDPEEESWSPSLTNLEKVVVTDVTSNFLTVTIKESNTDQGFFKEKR
The experiment in a line: In-gel fluorescence labeling in HEK293T cell lysates. The format is binding. Conditions: ~20 μM, 20 eq competitor with P2. On the procedure:
After incubation of the inhibitor P2 at 1 μM in HEK293T cell lysates for 1 h at 37° C., click chemistry was conducted to conjugate TAMRA-azide to the C-terminal alkyne of P2 prior to SDS-PAGE.

Structures are written as SMILES. Residue numbers refer to the chain shown, from its start. Where a SMILES comes first, the peptide text is derived from it. [ ]: non-standard residue; d: D form. The star is where a group is joined. Benzoyl(4-OPh) = O=C(c1ccc(Oc2ccccc2)cc1)*; Lys(Et2) = CCN(CC)CCCC[C@H](N)C(=O)O; Gly(cPent) = N[C@H](C(=O)O)C1CCCC1

For orientation: IC50 means the midpoint of a concentration-inhibition curve. Low values mean higher potency, high ones lower potency. Turning to `CC[C@H](C)[C@H](NC(=O)[C@@H](NC(=O)c1ccc(Oc2ccccc2)cc1)C1CCCC1)C(=O)N[C@@H](CCCCN(CC)CCCCCCN1CCN=CC1=O)C(=O)N[C@@H](CO)C(N)=O` [Compound P1b], the degradation result in data set [1] (100 mM HCl, 100 mM NaOH and neutral PBS, 96 h, room temperature) is reported as “no significant degradation”. The “conversion of imine to amine on NaBH3CN after 24-hour incubation in PBS” value in data set [1] (24 h PBS, then sodium cyanoborohydride (10 eq.)) is listed as “full conversion of imine to amine”. The IC50 at mutant CBX8 (Y39F) amounted to 7.3 µM. Further, the “reduction of HOXA9 gene expression, 10 μM P1b vs 100 μM SW2_110A” value in data set [2] (10 μM P1b vs 100 μM SW2_110A) is reported as “reduced gene expression to a similar extent as 100 μM SW2_110A”. Moreover, the “reduction of HOXA9 expression versus non-covalent inhibitor” value in data set [2] (THP1, 48 h, vs SW2_110A) is “most effective at reducing HOXA9 gene expression”. In data set [3], the “time-dependent change of potency (IC50)” value is “time-dependent increase of potency” and the “IC50 without additional incubation time (in words)” value is listed as “comparable IC50 values”.
What is called Kd is the constant that tells how readily two partners part at equilibrium. Regarding `CC[C@H](C)[C@H](NC(=O)[C@@H](NC(=O)c1ccc(Oc2ccccc2)cc1)C1CCCC1)C(=O)N[C@@H](CCCCN(CC)CC)C(=O)N[C@@H](CO)C(N)=O` [SW2_110A] ({Benzoyl(4-OPh)}-[Gly(cPent)]I[Lys(Et2)]S-NH2), in data set [4], the CBX8-mediated gene expression result is recorded as “reduces CBX8-mediated gene expression” and the “inhibition of CBX8 binding to chromatin” value is on record as “inhibits CBX8 binding to chromatin”. In addition, the “selectivity over CBX2” value on CBX8 ChD (CBX8 over CBX2) is 6 fold. For the same compound, at CBX8 ChD, the Kd was 0.8 µM. Further, on CBX8 ChD (in words), the “selectivity for CBX8 over CBX4, CBX6, and CBX7” value is “high selectivity”. Moreover, in data set [3], the “time-dependent change of potency (IC50)” value is “did not” and the “IC50 without additional incubation time (in words)” value is “comparable IC50 values”. For the same compound, on endogenous CBX8, the “effect on P2 protein labeling on co-incubation” value is recorded as “protein labeling was reduced”.
